# Experimental data taken from US9963461B2, “Phillygenin ibuprofen ester, preparation method therefor, and application thereof” (priority 2014, dated 2018).
# Marks after values point to notes of the source that are not given here.
# Columns and labels:
# [1] = test system: sweat secretion of rat paw part; test: Sweat secretion of rat paw part (coloring method); assay type: in vivo, Wistar rats; details: for Animal number of sweat points of level +++: +++ = sweat area about 41-70%; for Animal number of sweat points of level ++++: ++++ = sweat area over 71%; for Animal number of sweat points of level −: − = no sweat point; for Animal number of sweat points of level +: + = sweat area below about 10%; for Animal number of sweat points of level ++: ++ = sweat area about 11-40%
# From the text: This test was designed to observe the change of sweat secretion based on the mechanism that sweat gland is distributed on the rat paw pads, and iodine and starch can have purple reaction when encountered with sweat. In the test, 350 Wistar rats were selected, with equal male and female number, weighing 120-150 g. […] The rats were placed in a self-made rat fixation bag, with the double hind limbs exposed. The dirts on the right paw was gently scrubbed clean with the cotton swab dipped with anhydrous ethanol. Besides that subcutaneous injection was used for the pilocarpine solution, intragastric administration was used for all the other groups. […] When the test was complete, statistical process was carried out according to the rank-sum test with two-sample comparison, in order to compare the difference between the groups.
# [2] = test system: Herpes Simplex Virus type I (HSV-1); test: Impact of the drugs on the virus-induced cytopathy (MTT); assay type: cell-based; details: HSV-I 100 TCID50, Vero cells, about the maximal non-cytotoxic concentration, 72 hours
# [3] = after coating B liquid for 1 minute, 10.0 mg/kg intragastric
# [4] = after coating B liquid for 5 minutes, 2.5 mg/kg intragastric
# [5] = after coating B liquid for 5 minutes, 5.0 mg/kg intragastric
# [6] = after coating B liquid for 5 minutes, 10.0 mg/kg intragastric
# [7] = after coating B liquid for 10 minutes, 2.5 mg/kg intragastric
# [8] = after coating B liquid for 10 minutes, 5.0 mg/kg intragastric
# [9] = after coating B liquid for 10 minutes, 10.0 mg/kg intragastric
# [10] = after coating B liquid for 15 minutes (Table 2-4), 2.5 mg/kg intragastric
# [11] = after coating B liquid for 15 minutes (Table 2-4), 5.0 mg/kg intragastric
# [12] = after coating B liquid for 15 minutes (Table 2-4), 10.0 mg/kg intragastric
# [13] = after coating B liquid for 15 minutes (Table 2-5), 2.5 mg/kg intragastric
# [14] = after coating B liquid for 15 minutes (Table 2-5), 5.0 mg/kg intragastric
# [15] = after coating B liquid for 15 minutes (Table 2-5), 10.0 mg/kg intragastric
compound,measurement,setting,value
"COc1ccc([C@H]2OCC3C2CO[C@H]3c2ccc(OC)c(OC(=O)C(C)c3ccc(CC(C)C)cc3)c2)cc1OC (stereo partly shown) [Phillygenin ibuprofen ester, phillygenin ibuprofen ester]",Animal number of sweat points of level +++,[1]; [3],1
same,Animal number of sweat points of level ++++,[1]; [3],5
same,Animal number of sweat points of level −,[1]; [3],0
same,Animal number of sweat points of level +,[1]; [4],1
same,Animal number of sweat points of level ++,[1]; [4],3
same,Animal number of sweat points of level +++,[1]; [4],3
same,Animal number of sweat points of level ++++,[1]; [4],3
same,Animal number of sweat points of level −,[1]; [4],0
same,Animal number of sweat points of level +,[1]; [5],1
same,Animal number of sweat points of level ++,[1]; [5],4
same,Animal number of sweat points of level +++,[1]; [5],1
same,Animal number of sweat points of level ++++,[1]; [5],5
same,Animal number of sweat points of level −,[1]; [5],0
same,Animal number of sweat points of level +,[1]; [6],0
same,Animal number of sweat points of level ++,[1]; [6],3
same,Animal number of sweat points of level +++,[1]; [6],2
same,Animal number of sweat points of level ++++,[1]; [6],5
same,Animal number of sweat points of level −,[1]; [6],0
same,Animal number of sweat points of level +,[1]; [7],1
same,Animal number of sweat points of level ++,[1]; [7],2
same,Animal number of sweat points of level +++,[1]; [7],3
same,Animal number of sweat points of level ++++,[1]; [7],4
same,Animal number of sweat points of level −,[1]; [7],0
same,Animal number of sweat points of level +,[1]; [8],0
same,Animal number of sweat points of level ++,[1]; [8],3
same,Animal number of sweat points of level +++,[1]; [8],2
same,Animal number of sweat points of level ++++,[1]; [8],5
same,Animal number of sweat points of level −,[1]; [8],0
same,Animal number of sweat points of level +,[1]; [9],0
same,Animal number of sweat points of level ++,[1]; [9],2
same,Animal number of sweat points of level +++,[1]; [9],3
same,Animal number of sweat points of level ++++,[1]; [9],5
same,Animal number of sweat points of level −,[1]; [9],0
same,Animal number of sweat points of level +,[1]; [10],1
same,Animal number of sweat points of level ++,[1]; [10],3
same,Animal number of sweat points of level +++,[1]; [10],1
same,Animal number of sweat points of level ++++,[1]; [10],5
same,Animal number of sweat points of level −,[1]; [10],0
same,Animal number of sweat points of level +,[1]; [11],0
same,Animal number of sweat points of level ++,[1]; [11],2
same,Animal number of sweat points of level +++,[1]; [11],3
same,Animal number of sweat points of level ++++,[1]; [11],5
same,Animal number of sweat points of level −,[1]; [11],0
same,Animal number of sweat points of level +,[1]; [12],0
same,Animal number of sweat points of level ++,[1]; [12],1
same,Animal number of sweat points of level +++,[1]; [12],4
same,Animal number of sweat points of level ++++,[1]; [12],5
same,Animal number of sweat points of level −,[1]; [12],0
same,Animal number of sweat points of level +,[1]; [13],0
same,Animal number of sweat points of level ++,[1]; [13],2
same,Animal number of sweat points of level +++,[1]; [13],3
same,Animal number of sweat points of level ++++,[1]; [13],5
same,Animal number of sweat points of level −,[1]; [13],0
same,Animal number of sweat points of level +,[1]; [14],0
same,Animal number of sweat points of level ++,[1]; [14],1
same,Animal number of sweat points of level +++,[1]; [14],4
same,Animal number of sweat points of level ++++,[1]; [14],5
same,Animal number of sweat points of level −,[1]; [14],0
same,Animal number of sweat points of level +,[1]; [15],0
same,Animal number of sweat points of level ++,[1]; [15],0
same,Animal number of sweat points of level +++,[1]; [15],5
same,Animal number of sweat points of level ++++,[1]; [15],5
same,Animal number of sweat points of level −,[1]; [15],0
same,antiviral effective rate (ER %),[2],99.80**^# %
